Source: US20250287950A1, “FUNGICIDAL USE” (Adama Makhteshim Ltd., priority 2021, published 2025)

Tests used:
[1] = system: Mycosphaerella fijiensis (black sigatoka); assay: Black sigatoka open field trial in banana, 12 applications, leaves per plant (Example 8b); format: in vivo; details: folpet 850 g a.i./ha
From the text: To test fungicidal control of Mycosphaerella fijiensis, the trial was realized in open field. […] All treatments were applied in a water solution: no mineral oil added.
Experimental unit consisted of 9 banana plants surrounded by Musa textilis, a variety tolerant to Black Sigatoka, used as border plants. The trial followed a complete randomized design, each treatment was replicated three times.
Applications were done every 6 days. All treatments had 12 applications.
The total leaves per plant was evaluated. A high number of leaves at harvest translates to more capability keep the fruit in post-harvest.
Treatment response to black Sigatoka was evaluated using the Stover scale modified by Gauhl.
The statistical analysis was done with INFOSTAT program, using a multiple comparison test (LSD) for every parameter.

[2] = system: Mycosphaerella fijiensis (black sigatoka); assay: Black sigatoka open field trial in banana, one application (Example 8a); format: in vivo
Protocol: To test for fungicidal control of Mycosphaerella fijiensis the trial was realized in open field. […] Each of the above treatments was applied once when plants were showing a disease infection of 5%. The treatments composed of 4 replicates. The experimental design was a randomized complete block design. Data was analyzed using an ANOVA at the 95% confidence interval.
The level of infection was determined based on the weighted average of infection (PPI) using the Stover scale modified by Gaulh on 5 plants per plot.

Structure (SMILES): O=C1c2ccccc2C(=O)N1SC(Cl)(Cl)Cl [folpet]
- number of leaves per plant in comparison to the untreated and the mancozeb standard (in words) [1]: higher number of leaves per plant
- efficacy relative to the mancozeb reference product (in words) ([2]; dose of 750 g a.i./ha): comparable to the one provided by the reference product based on mancozeb
- control of black sigatoka disease (in words) ([2]; low doses of 500 and 625 g a.i./ha): good control
